Assay [1] concerns NAGS. The class given is cell-based, human. The conditions noted are these: 10 μM, primary human hepatocytes, triplicate (Table 21, FIG. 13).
Assay [2] relates to SLC25A15. The assay can be described thus: RNA-seq of compound-treated primary human hepatocytes, SLC25A15 expression. The class given is cell-based. The conditions noted are these: for Relative SLC25A15 level vs Untreated (±Standard Deviation): primary human hepatocytes, triplicate (Table 24, FIG. 16A-B).
The test system of assay [3] is CPS1. Nature of the assay: RNA-seq of compound-treated primary human hepatocytes, CPS1 expression. The class given is cell-based. Particulars: primary human hepatocytes, triplicate (Table 19, FIG. 11).
For assay [4], the system named is ARG1. The assay can be described thus: RNA-seq of compound-treated primary human hepatocytes, ARG1 expression. In kind it is cell-based. Particulars: for Relative ARGI level vs Untreated (±Standard Deviation): primary human hepatocytes, triplicate (Table 17, FIG. 9).
The subject of assay [5] is ASS1. Nature of the assay: RNA-seq of compound-treated primary human hepatocytes, ASS1 expression. The class given is cell-based. Particulars: 10 μM, primary human hepatocytes, triplicate (Table 15, FIG. 7).
Assay [6] relates to CPS1. Nature of the assay: JAK inhibitors at 0.3 and 3 μM in primary human hepatocytes, CPS1 mRNA fold change. In kind it is cell-based. Particulars: fold change vs DMSO. The protocol: (§1) Additional small molecules that inhibit JAK1, JAK2, JAK3, or a combination of the JAK proteins were tested in primary human hepatocytes as described in Example 2. JAK inhibitors were tested in triplicate at 0.3 μM and 3 μM. The results are shown as the fold change (mRNA FC) in the mRNA levels of OTC and CPS1 genes after treatment compared to an untreated control (DMSO) and the standard deviation (SD).

Assay [7] concerns OTC. The assay can be described thus: JAK inhibitors at 0.3 and 3 μM in primary human hepatocytes, OTC mRNA fold change. In kind it is cell-based. The conditions noted are these: fold change vs DMSO. The protocol:
as §1

The mark [8] stands for this setting: Example 11, relative mRNA vs DMSO.

`CCN(CC)CCCCNc1ncc2cc(-c3cc(OC)cc(OC)c3)c(NC(=O)NC(C)(C)C)nc2n1` [PD173074]: the “Relative NAGS level vs Untreated (±Standard Deviation)” value in assay [1] was 1.30 ± 0.31. In assay [2] (3 μM), the “Relative SLC25A15 level vs Untreated (±Standard Deviation)” value worked out at 1.30 ± 0.12. Besides, the “Relative CPS1 level vs Untreated (±Standard Deviation)” value in assay [3] (3 μM) worked out at 1.35 ± 0.03.

With `COc1cc2c(Oc3ccc(NC(=O)C4(C(=O)Nc5ccc(F)cc5)CC4)cc3F)ccnc2cc1OCCCN1CCOCC1` [Foretinib], the “Relative NAGS level vs Untreated (±Standard Deviation)” value in assay [1] was 1.45 ± 0.38. The “Relative SLC25A15 level vs Untreated (±Standard Deviation)” value in assay [2] (10 μM) is on record as 1.97 ± 0.15. For the same compound, the “Relative CPS1 level vs Untreated (±Standard Deviation)” value in assay [3] (3 μM) is listed as 1.37 ± 0.30; in assay [3] (10 μM), 1.75 ± 0.30. Moreover, the entries for the “Relative ARGI level vs Untreated (±Standard Deviation)” value in assay [4] (3 μM) and in assay [4] (10 μM) were 1.40 ± 0.00 and 1.61 ± 0.12, respectively. In addition, in assay [5], the “Relative ASS1 level vs Untreated (±Standard Deviation)” value came out at 1.82 ± 0.11.

Turning to `CC(=O)NCC(=O)N1[C@@H]2CC[C@H]1c1ccc(Nc3ncc(C(F)(F)F)c(NC4CCC4)n3)cc12` [PF-3814735], the “Relative SLC25A15 level vs Untreated (±Standard Deviation)” value came to 1.35 ± 0.11 in assay [2] (1 μM), 3.06 ± 0.51 in assay [2] (3 μM) and 2.41 ± 0.14 in assay [2] (10 μM). The “Increase in SLC25A15 gene expression (qualitative)” value in assay [2] (setting [8]) is “greatest increase”. The “Relative CPS1 level vs Untreated (±Standard Deviation)” value in assay [3] (3 μM) is recorded as 2.25 ± 0.74. The “Relative ARGI level vs Untreated (±Standard Deviation)” value is reported as 1.44 ± 0.02 in assay [4] (1 μM) and 2.45 ± 0.43 in assay [4] (3 μM). Moreover, the “increase in ARG1 gene expression (Tables 17, 18, FIG. 9, 10)” value in assay [4] (setting [8]) is given as “greatest increase”. The “Relative ASS1 level vs Untreated (±Standard Deviation)” value in assay [5] is on record as 1.56 ± 0.17.

For the compound `N#CC[C@H](C1CCCC1)n1cc(-c2ncnc3[nH]ccc23)cn1` [ruxolitinib], the “CPS1 mRNA FC” value in assay [6] (0.3 uM) was 1.66; in assay [6] (3 uM) it was 1.79. In addition, the results for the “OTC mRNA FC” value in assay [7] (0.3 uM) and in assay [7] (3 uM) were 2.65 and 4.17, respectively.

On to `COc1cc2ncnc(Nc3ccc(O)cc3)c2cc1OC` [JANEX-1], for which the “CPS1 mRNA FC” value in assay [6] (0.3 uM) was 0.86; in assay [6] (3 uM), 1.01. For the same compound, the figures for the “OTC mRNA FC” value in assay [7] (0.3 uM) and in assay [7] (3 uM) were 0.85 and 1.1, respectively.

In the case of `O=C(NOCCO)c1cc(CN2OCCCC2=O)c(F)c(F)c1Nc1ccc(I)cc1F` [Compound R04987655], the entries for the “Relative CPS1 level vs Untreated (±Standard Deviation)” value in assay [3] (1 μM) and in assay [3] (10 μM) were 1.46 ± 0.27 and 1.33 ± 0.21, respectively.

For the compound `CCS(=O)(=O)N1CC(CC#N)(n2cc(-c3ncnc4[nH]ccc34)cn2)C1` [Baricitinib], the entries for the “CPS1 mRNA FC” value in assay [6] (0.3 uM) and in assay [6] (3 uM) were 1.4 and 1.38, respectively. Further, the “OTC mRNA FC” value in assay [7] (0.3 uM) is given as 2.56; in assay [7] (3 uM), 2.85.

On to `Cc1cnc(Nc2ccc(OCCN3CCCC3)cc2)nc1Nc1cccc(S(=O)(=O)NC(C)(C)C)c1` [Fedratinib], for which the “CPS1 mRNA FC” value in assay [6] (0.3 uM) came to 0.93; in assay [6] (3 uM), 0.95. In addition, the figures for the “OTC mRNA FC” value in assay [7] (0.3 uM) and in assay [7] (3 uM) were 1.09 and 1.49, respectively.

`NC(=O)c1cnc2[nH]ccc2c1N[C@@H]1[C@@H]2CC3C[C@H]1C[C@@](O)(C3)C2` [Peficitinib]: the “CPS1 mRNA FC” value in assay [6] (0.3 uM) amounted to 1.31; in assay [6] (3 uM), 2.28. Also, the “OTC mRNA FC” value in assay [7] (0.3 uM) is listed as 2.38; in assay [7] (3 uM) it was 3.49.

For `CCc1cc(O)c(F)cc1-c1ccc2c(-c3nc4c([nH]3)CCN(C(=O)c3cnc(N5CCCCC5)cn3)C4)n[nH]c2c1` [PF-06263276], the “CPS1 mRNA FC” value in assay [6] (0.3 uM) was found to be 1.05; in assay [6] (3 uM) it was 1.03. Besides, the “OTC mRNA FC” value in assay [7] (0.3 uM) is recorded as 1.16; in assay [7] (3 uM), 1.46.

With `O=C(Nc1nc2cccc(-c3ccc(CN4CCS(=O)(=O)CC4)cc3)n2n1)C1CC1` [GLPG0634/Filgotinib], the “CPS1 mRNA FC” value in assay [6] (0.3 uM) amounted to 1.08; in assay [6] (3 uM) it was 1.56. For the same compound, the entries for the “OTC mRNA FC” value in assay [7] (0.3 uM) and in assay [7] (3 uM) were 1.12 and 2.11, respectively.

For `O=C(Nc1ccc(-c2ccnc(Nc3ccc(N4CCOCC4)cc3)n2)cc1)C1CCCN1` (centres unmarked) [XL019], the “CPS1 mRNA FC” value in assay [6] (0.3 uM) is 0.91; in assay [6] (3 uM), 0.81. Moreover, the “OTC mRNA FC” value in assay [7] (0.3 uM) amounted to 1.09; in assay [7] (3 uM), 1.02.

The record behind these values is patent US11266655B2, “Methods and compositions for treating urea cycle disorders” (Camp4 Therapeutics Corporation, priority 2019, dated 2022).
